The subject of the assay is SK-N-SH. Nature of the assay: Inhibition of [3H]NE uptake into human SK-N-SH-SY5Y Neuroblastoma cells. Type of assay: functional, cell-based.

Experimental findings from ChEMBL document CHEMBL1132341, “Synthesis and characterization of fluorescent ligands for the norepinephrine transporter: potential neuroblastoma imaging agents” (J Med Chem, 1999) are described below.

SMILES strings stand for the structures.

`CNCCC(NS(=O)(=O)c1cccc2c(N(C)C)cccc12)c1ccccc1` (stereo not drawn) yielded an IC50 of 370 nM.
The result for `CNCCC(Nc1ccc([N+](=O)[O-])c2nonc12)c1ccccc1` (stereo not drawn) reads 850 nM.
Molecule `CCOC(=O)[C@@H]1[C@H](O/C(S)=N/c2ccc(/N=N/c3ccc(N(C)C)cc3)cc2)C[C@H]2CC[C@@H]1N2C` showed a half-maximal inhibitory concentration (IC50) of 1320 nM.
The result for `CCOC(=O)[C@@H]1[C@H](OS(=O)(=O)c2cccc3c(N(C)C)cccc23)C[C@H]2CC[C@@H]1N2C` reads 60 nM.
Consider `N=C(N)NCCN1c2ccccc2C=Cc2ccccc21`, for which half-maximal inhibition (IC50) required 30 nM.
For the molecule `N=C(N)NCc1cccc2ccccc12`, 60 nM corresponded to half-maximal inhibition (IC50).
`CNCCC(/N=C(\S)Nc1ccc(/N=N/c2ccc(N(C)C)cc2)cc1)c1ccccc1` (stereo not drawn) yielded an IC50 of 1020 nM.
Molecule `N=C(N)NCc1ccc(/C=C/c2ccccc2)cc1` returned an IC50 of 120 nM.

For orientation: IC50 means the point on the concentration scale where inhibition reaches its midpoint.
